Laboratory results as given in patent publication US20130252334A1, “METHOD OF USING TET-INDUCIBLE TRANSGENES” (UNIVERSITY OF ROCHESTER, priority 2010, published 2013).
Like-named read-outs stand apart in the source and are kept apart here.

Tested on: caspase-3 cleavage
Conditions: 2.5 μg/ml; for suppression of hypoxia-induced caspase-3 cleavage after pulse dosing: 16 hours washout, hypoxia 0.5% O2 24 hours; for caspase-3 cleavage, both dosing protocols: continuous or pulse, hypoxia
Experimental: Cells were exposed to 0.5% O2 for 18 hours unless otherwise specified.

Row | Compound | suppression of hypoxia-induced caspase-3 cleavage after pulse dosing (12 hours pulse) | suppressive effect on caspase-3 cleavage vs washout period length (12 hours pulse, washout 0, 12, 24 hours, hypoxia 0.5% O2 18 hours) | caspase-3 cleavage, both dosing protocols | suppression of hypoxia-induced caspase-3 cleavage after pulse dosing (12 hours pulse, listed as doxycycline)
1 | C[C@H]1c2ccc(C(C)(C)C)c(O)c2C(O)=C2C(=O)[C@]3(O)C(O)=C(C(N)=O)C(=O)[C@@H](N(C)C)[C@@H]3[C@@H](O)[C@@H]21 [9-TB, 9-t-butyl doxycycline] | less impressive | augmented by shorter washout periods with a sharp decline occurring between the 12 and 24-hour chase periods | both drugs interfered with caspase-3 cleavage | 
2 | CC1c2cccc(O)c2C(=O)C2=C(O)C3(O)C(=O)C(C(N)=O)=C(O)C(N(C)C)C3C(O)C21 (stereo not drawn) [Dox, 4-[Dimethylamino]-1,4,4a,5,5a,6,11,12a-octahydro-3,5,10,12,12apentahydroxy-6-methyl-1,11-dioxo-2-naphthacenecarboxamide] | ameliorated dox-mediated suppression |  | both drugs interfered with caspase-3 cleavage | did ameliorate its suppressive effects on caspase cleavage
